Assay results published in paper PMC11396129, “Oxindole–benzothiazole hybrids as CDK2 inhibitors and anticancer agents: design, synthesis and biological evaluation” (BMC Chemistry, 2024).

How the values were obtained:
SF-295 = test: NCI 60 panel growth inhibition (SRB), CNS cancer; type: cell-based, human; conditions: SF-295, 10 μM
Method: (§1) Screening of cytotoxic activity against a panel of sixty human tumor cell lines The selected compounds by NCI were evaluated for their anticancer activity in a two- stage process. […] Then, the output from the single dose screen is reported as a mean graph. […] Assay protocol. […] For a typical screening experiment, cells are inoculated into 96 well microtiter plates in 100 µL at plating densities ranging from 5000 to 40,000 cells/well depending on the doubling time of individual cell lines. […] After 24 h, two plates of each cell line are fixed in situ with TCA, to represent a measurement of the cell population for each cell line at the time of drug addition (Tz). The experimental drugs are solubilized in dimethyl sulfoxide at 400-fold the desired final maximum test concentration and stored frozen prior to use. At the time of drug addition, an aliquot of frozen concentrate is thawed and diluted to twice the desired final maximum test concentration with complete medium containing 50 µg/mL gentamicin. Additional four, 10-fold or ½ log serial dilutions are made to provide a total of five drug concentrations plus control. […] For adherent cells, the assay is terminated by the addition of cold TCA. […] The supernatant is discarded, and the plates are washed five times with tap water and air dried. […] Using the seven absorbance measurements [time zero, (Tz), control growth, (C), and test growth in the presence of drug at the five concentration levels (Ti)], the percentage growth is calculated at each of the drug concentrations levels. Percentage growth inhibition is calculated as: [(Ti Tz)/(C–Tz)] x 100 for concentrations for which Ti>/=Tz and [(Ti-Tz)/Tz] x 100 for concentrations for which Ti < Tz. Three dose response parameters are calculated for each experimental agent. […] The drug concentration resulting in total growth inhibition (TGI) is calculated from Ti = Tz. […] Values are calculated for each of these three parameters if the level of activity is reached; however, if the effect is not reached or is exceeded, the value for that parameter is expressed as greater or less than the maximum or minimum concentration tested.

SF-268 = test: NCI 60 panel growth inhibition (SRB), CNS cancer; type: cell-based, human; conditions: SF-268, 10 μM
Method: as §1

U251 = test: NCI 60 panel growth inhibition (SRB), CNS cancer; type: cell-based, human; conditions: U251, 10 μM
Method: as §1

SNB-75 = test: NCI 60 panel growth inhibition (SRB), CNS cancer; type: cell-based, human; conditions: SNB-75, 10 μM
Method: as §1

SNB-19 = test: NCI 60 panel growth inhibition (SRB), CNS cancer; type: cell-based, human; conditions: SNB-19, 10 μM
Method: as §1

SF-539 = test: NCI 60 panel growth inhibition (SRB), CNS cancer; type: cell-based, human; conditions: SF-539, 10 μM
Method: as §1

TK-10 = test: NCI 60 panel growth inhibition (SRB), renal cancer; type: cell-based, human; conditions: TK-10, 10 μM
Outline: (§2)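 Cells were plated at 5000–40,000/well and drug was added after 24 h at five concentrations (10-fold or ½ log dilutions), with TCA-fixed time-zero plates as reference. Growth was measured by SRB absorbance, percentage growth was computed against time-zero and control, and TGI was taken at Ti = Tz.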

UO-31 = test: NCI 60 panel growth inhibition (SRB), renal cancer; type: cell-based, human; conditions: UO-31, 10 μM
Outline: as §2

RXF 393 = test: NCI 60 panel growth inhibition (SRB), renal cancer; type: cell-based, human; conditions: RXF 393, 10 μM
Outline: as §2

786-0 = test: NCI 60 panel growth inhibition (SRB), renal cancer; type: cell-based, human; conditions: 786-0, 10 μM
Outline: as §2

[1] = system: NCI 60 cancer cell line panel; test: NCI 60 panel growth inhibition (SRB), whole panel; type: cell-based, human; conditions: mean over NCI 60 panel, 10 μM
Method: as §1

SK-OV-3 = test: NCI 60 panel growth inhibition (SRB), ovarian cancer; type: cell-based, human; conditions: SK-OV-3, 10 μM
Method: as §1

OVCAR-5 = test: as above; type: cell-based, human; conditions: OVCAR-5, 10 μM
Method: as §1

OVCAR-3 = test: as above; type: cell-based, human; conditions: OVCAR-3, 10 μM
Method: as §1

NCI/ADR-RES = test: as above; type: cell-based, human; conditions: 10 μM
Method: as §1

OVCAR-4 = test: as above; type: cell-based, human; conditions: OVCAR-4, 10 μM
Method: as §1

IGROV1 = test: as above; type: cell-based, human; conditions: IGROV1, 10 μM
Method: as §1

OVCAR-8 = test: as above; type: cell-based, human; conditions: OVCAR-8, 10 μM
Method: as §1

SR = test: NCI 60 panel growth inhibition (SRB), leukemia; type: cell-based, human; conditions: 10 μM
Method: as §1

RPMI-8226 = test: NCI 60 panel growth inhibition (SRB), leukemia; type: cell-based, human; conditions: RPMI-8226, 10 μM
Method: as §1

CCRF-CEM = test: NCI 60 panel growth inhibition (SRB), leukemia; type: cell-based, human; conditions: 10 μM
Method: as §1

K-562 = test: NCI 60 panel growth inhibition (SRB), leukemia; type: cell-based, human; conditions: K-562, 10 μM
Method: as §1

HL-60(TB) = test: NCI 60 panel growth inhibition (SRB), leukemia; type: cell-based, human; conditions: HL-60(TB), 10 μM
Method: as §1

MOLT-4 = test: NCI 60 panel growth inhibition (SRB), leukemia; type: cell-based, human; conditions: MOLT-4, 10 μM
Method: as §1

| SMILES | melting point | GI% (SF-295) | GI% (SF-268) | GI% (U251) | GI% (SNB-75) | GI% (SNB-19) | GI% (SF-539) | GI% (TK-10) | GI% (UO-31) | GI% (RXF 393) | GI% (786-0) | GI% (SK-OV-3) | GI% (OVCAR-5) | GI% (OVCAR-3) | GI% (NCI/ADR-RES) | GI% (OVCAR-4) | GI% (IGROV1) | GI% (OVCAR-8) | GI% (SR) | GI% (RPMI-8226) | other results |
| --- | --- | --- | --- | --- | --- | --- | --- | --- | --- | --- | --- | --- | --- | --- | --- | --- | --- | --- | --- | --- | --- |
| COc1cccc(-c2nc3ccccc3s2)c1OCC(=O)NN=C1C(=O)Nc2ccc([N+](=O)[O-])cc21 [Compound 9j, 2-(2-(Benzo[d]thiazol-2-yl)-6-methoxyphenoxy)-N′-(5-nitro-2-oxoindolin-3-ylidene)acetohydrazide] | 276 to 278 °C | 11.71% | – (GI% < 5%) | – (GI% < 5%) | – (GI% < 5%) | 5.77% | – (GI% < 5%) | – (GI% < 5%) | 25.41% | 9.05% | – (GI% < 5%) | – (GI% < 5%) | – (GI% < 5%) | – (GI% < 5%) | 6.51% | 5.61% | – (GI% < 5%) | – (GI% < 5%) | – (GI% < 5%) | 22.11% | Mean GI% [1]: – (GI% < 5%); GI% (CCRF-CEM): 34.81%; GI% (K-562): – (GI% < 5%); GI% (HL-60(TB)): – (GI% < 5%); GI% (MOLT-4): 9.01% |
| O=C(COc1ccccc1-c1nc2ccccc2s1)NN=C1C(=O)Nc2ccccc21 [Compound 9a, 2-(2-(Benzo[d]thiazol-2-yl)phenoxy)-N′-(2-oxoindolin-3-ylidene)acetohydrazide] | 238 to 240 °C | 14.46% | 6.56% | – (GI% < 5%) | – (GI% < 5%) | 6.15% | 5.56% | – (GI% < 5%) | 26.54% | 5.86% | – (GI% < 5%) | – (GI% < 5%) | – (GI% < 5%) | – (GI% < 5%) | – (GI% < 5%) | 13.08% | – (GI% < 5%) | – (GI% < 5%) | – (GI% < 5%) | 21.80% | GI% (CCRF-CEM): 20.22%; GI% (K-562): – (GI% < 5%); GI% (HL-60(TB)): – (GI% < 5%); GI% (MOLT-4): 8.23% |
| COc1ccc2c(c1)C(=NNC(=O)COc1c(OC)cccc1-c1nc3ccccc3s1)C(=O)N2 [Compound 9i, 2-(2-(Benzo[d]thiazol-2-yl)-6-methoxyphenoxy)-N′-(5-methoxy-2-oxoindolin-3-ylidene)acetohydrazide] | 144 to 146 °C | 13.86% | – (GI% < 5%) | – (GI% < 5%) | – (GI% < 5%) | 11.58% | 6.47% | – (GI% < 5%) | 30.29% | 15.41% | 5.62% | 9.98% | – (GI% < 5%) | – (GI% < 5%) | 10.58% | 20.14% | – (GI% < 5%) | 11.59% | – (GI% < 5%) | 47.68% | Mean GI% [1]: 6.32%; GI% (CCRF-CEM): 44.24%; GI% (K-562): 21.95%; GI% (HL-60(TB)): – (GI% < 5%); GI% (MOLT-4): 45.30% |
| COc1cccc(-c2nc3ccccc3s2)c1OCC(=O)NN=C1C(=O)Nc2ccccc21 [Compound 9g, 2-(2-(Benzo[d]thiazol-2-yl)-6-methoxyphenoxy)-N′-(2-oxoindolin-3-ylidene)acetohydrazide] | 246 to 248 °C | 29.36% | 5.11% | 8.36% | – (GI% < 5%) | 13.10% | 9.46% | – (GI% < 5%) | 41.81% | 35.85% | – (GI% < 5%) | 8.22% | – (GI% < 5%) | – (GI% < 5%) | 28.45% | 27.14% | 7.95% | 10.62% | 18.95% | 50.80% | Mean GI% [1]: 15.46%; GI% (CCRF-CEM): 41.07%; GI% (K-562): 32.23%; GI% (HL-60(TB)): 15.30%; GI% (MOLT-4): 49.06% |
| COc1ccc2c(c1)C(=NNC(=O)COc1ccccc1-c1nc3ccccc3s1)C(=O)N2 [Compound 9c, 2-(2-(Benzo[d]thiazol-2-yl)phenoxy)-N′-(5-methoxy-2-oxoindolin-3-ylidene)acetohydrazide] | 240 to 242 °C | 20.67% | 13.85% | – (GI% < 5%) | – (GI% < 5%) | 7.69% | 5.44% | – (GI% < 5%) | 35.66% | 23.06% | 5.40% | – (GI% < 5%) | – (GI% < 5%) | – (GI% < 5%) | 25.58% | 32.22% | – (GI% < 5%) | 19.15% | 20.98% | 48.87% | Mean GI% [1]: 12.24%; GI% (CCRF-CEM): 60.17%; GI% (K-562): 30.54%; GI% (HL-60(TB)): 15.59%; GI% (MOLT-4): 47.19% |
| COc1cccc(-c2nc3ccccc3s2)c1OCC(=O)NN=C1C(=O)Nc2ccc(C)cc21 [Compound 9h, 2-(2-(Benzo[d]thiazol-2-yl)-6-methoxyphenoxy)-N′-(5-methyl-2-oxoindolin-3-ylidene)acetohydrazide] | 244 to 246 °C | 19.06% | – (GI% < 5%) | 5.89% | – (GI% < 5%) | 8.33% | 9.04% | – (GI% < 5%) | 38.34% | 25.38% | 9.21% | 14.52% | – (GI% < 5%) | – (GI% < 5%) | 14.65% | 20.46% | 6.64% | 12.04% | – (GI% < 5%) | 54.14% | Mean GI% [1]: 9.27%; GI% (CCRF-CEM): 47.56%; GI% (K-562): 26.17%; GI% (HL-60(TB)): – (GI% < 5%); GI% (MOLT-4): 43.65% |
